Measurements as given in patent US10849878B2 (OBSHCHESTVO S OGRANICHENNOY OTVETSTVENNOSTYU “NORMOFARM”, priority 2015, dated 2020).

Columns and labels:
rats = experiment: Porsolt helplessness test; type: in vivo, rat
white Wistar rats = experiment: suspension test (24 h), antistress and anxiolytic activity; type: in vivo, rat
Description: The anti-stress, anxiolytic and antidepressant effects of the claimed agent and compositions on its basis were determined as follows. […] The suspension test. Five animals from each group were used. Each animal was suspended for 24 hours. After that the sample of whole blood was taken from the sublingual vessels of that animal Then the animal was placed in a desiccator with diethyl ether. 60 minutes later a spinal decapitation of the animal was performed. The abdominal opening was performed and the number of ulcers on the inner surface of the stomach was counted. The obtained whole blood was placed in two test tubes. The whole blood was used to determine the number of eosinophils by the Duncker method. Serum was used to determine the biochemical composition of the blood. Adrenaline and norepinephrine were determined as biochemical indices. These characteristics are specific markers identifying the impact of stress factors of various etiologies. • 2. The transport stress simulation test. Five animals from each group were used. The animals were placed in cages fixed on a laboratory shutter. The duration of the test was 240 minutes. At the end of the test the animals were examined by the techniques described in paragraph 1. A sample of whole blood was taken to determine the number of eosinophils by the Duncker method. The blood serum was studied to measure the amount of enzymes: alanine aminotransferase (ALT), aspartate aminotransferase (AST), creatinine
The tests were carried out on 2-month-old rats of the Wistar line. The groups were selected according to the principle of paired counterparts.
During the course of the study the animals were selected from the formed groups of 10 animals each to participate in stress tests, 5 animals per test. The selection was made on the 7th, 14th, 21st day of the drug administration (experiments were performed on the same days right after selection). The animals were weighed weekly immediately before testing. The obtained data were processed by statistical methods of mathematical statistics. The drug was administered to the animals of the 2nd, 3rd and 4th groups in solution through a gastric tube. Water for injection produced by the “Bufus Novosibkhimpharm” was used as a solvent. The introduced volume was 1.5 ml. The solution was introduced at the same tine 2 hours after morning feeding. The first group was given water for injection by the same way. The volume of administration was 1.5 ml.
During the test a change in the reaction of the animals was observed during prolonged administration of the preparation. Three sequences of the experiment were performed with a periodicity of 7 days. The drug was administered from the first day of the study daily without a break. Thus, accumulation of the drug in the animal body occurred. Five animals from each group were used in each sequence of the experiment (the animals were suspended for 24 hours). After this, blood samples were taken from the sublingual vessels. Further, the animal was euthanized with diethyl ether. Decapitation and dissection of the abdominal cavity were performed to calculate the number of ulcers on the inner surface of the stomach. The rats as objects for the study of psychotropic drugs are a successful model. They react quickly to various stress factors. It is convenient to evaluate the efficacy of drugs due to various factors beginning with physiological, behavioral, biochemical and other parameters. In the suspension test, it is possible to determine the overall psycho-emotional state of the animal in addition to physical endurance.
The physiological, morphological and biochemical characteristics, such as the determination of ulcers in the stomach, eosinophils in whole blood, epinephrine and norepinephrine in blood serum were estimated as main and most informative indicators of the onset of a stress state in a living organism and of overall impact on the body. […]

[1] = 7 days after the dosing, LiAsc, LiCa 5 mg/kg, phenazepam 0.25 mg
[2] = 7 days after the drug withdrawal, 5 mg/kg
[3] = 28 days after the dosing, LiAsc, LiCa 5 mg/kg, phenazepam 0.25 mg
[4] = 28 days after the drug withdrawal, 5 mg/kg
[5] = 30 mg/kg solution by gastric tube, administration day 7
[6] = 30 mg/kg solution by gastric tube, administration day 14
[7] = 30 mg/kg solution by gastric tube, administration day 21
[8] = 60 mg/kg in the form of pills with cocoa, administration day 7
[9] = 60 mg/kg in the form of pills with cocoa, administration day 14
[10] = 60 mg/kg in the form of pills with cocoa, administration day 21
[11] = 60 mg/kg solution by gastric tube, administration day 7
[12] = 60 mg/kg solution by gastric tube, administration day 14
[13] = 60 mg/kg solution by gastric tube, administration day 21
[14] = 120 mg/kg solution by gastric tube, administration day 7
[15] = 120 mg/kg solution by gastric tube, administration day 14
[16] = 120 mg/kg solution by gastric tube, administration day 21

O=C1O[C@H]([C@@H](O)CO)C([O-])=C1O.[Li+] [lithium ascorbate]
Adrenalin (rats; [1]): 7.4 ± 1.4 µg/L
Duration of activity (rats; [1]): 356.4 ± 26.1 s
Duration of immobility (rats; [1]): 243.6 ± 17.6 s
Eosinophils (Dunger method) in mm^3 (rats; [1]): 783.2 ± 24.7 in mm^3
Noradrenalin (rats; [1]): 19.9 ± 0.9 µg/L
Number of gastric ulcers (rats; [1]): 1.5 ± 0.6
Adrenalin (rats; [2]): 8.4 ± 0.9 µg/L
Duration of activity (rats; [2]): 472.6 ± 29.3 s
Duration of immobility (rats; [2]): 127.3 ± 19.7 s
Eosinophils (Dunger method) in mm^3 (rats; [2]): 923.5 ± 64.2 in mm^3
Noradrenalin (rats; [2]): 18.3 ± 3.2 µg/L
Number of gastric ulcers (rats; [2]): 1.6 ± 0.9
Adrenalin (rats; [3]): 6.1 ± 0.6 µg/L
Duration of activity (rats; [3]): 506.4 ± 31.4 s
Duration of immobility (rats; [3]): 93.0 ± 19.3 s
Eosinophils (Dunger method) in mm^3 (rats; [3]): 987.3 ± 34.8 in mm^3
Noradrenalin (rats; [3]): 15.6 ± 0.79 µg/L
Number of gastric ulcers (rats; [3]): 0.8 ± 0.2
Adrenalin (rats; [4]): 20.3 ± 9.3 µg/L
Duration of activity (rats; [4]): 221.1 ± 19.8 s
Duration of immobility (rats; [4]): 377.9 ± 86.4 s
Eosinophils (Dunger method) in mm^3 (rats; [4]): 409.7 ± 37.9 in mm^3
Noradrenalin (rats; [4]): 38.9 ± 10.9 µg/L
Number of gastric ulcers (rats; [4]): 5.9 ± 0.4
Adrenaline level in blood serum (white Wistar rats; [5]): 8.1 ± 0.52 µg/L
Eosinophil count in whole blood (white Wistar rats; [5]): 764 ± 6.5
Noradrenaline level in blood serum (white Wistar rats; [5]): 24.3 ± 2.2 µg/L
Number of ulcers in the stomach (white Wistar rats; [5]): 4.5 ± 0.9
Adrenaline level in blood serum (white Wistar rats; [6]): 6.9 ± 2.77 µg/L
Eosinophil count in whole blood (white Wistar rats; [6]): 897 ± 7.2
Noradrenaline level in blood serum (white Wistar rats; [6]): 18.2 ± 5.28 µg/L
Number of ulcers in the stomach (white Wistar rats; [6]): 2.4 ± 0.2
Adrenaline level in blood serum (white Wistar rats; [7]): 6.9 ± 0.97 µg/L
Eosinophil count in whole blood (white Wistar rats; [7]): 954 ± 9.7
Noradrenaline level in blood serum (white Wistar rats; [7]): 17.9 ± 0.95 µg/L
Number of ulcers in the stomach (white Wistar rats; [7]): 1.9 ± 0.4
Eosinophil count in whole blood (white Wistar rats; [8]): 653 ± 9.2
Noradrenaline level in blood serum (white Wistar rats; [8]): 54.8 ± 10.4 µg/L
Number of ulcers in the stomach (white Wistar rats; [8]): 8.7 ± 1.2
Adrenaline level in blood serum (white Wistar rats; [9]): 6.7 ± 0.96 µg/L
Eosinophil count in whole blood (white Wistar rats; [9]): 913 ± 0.9
Noradrenaline level in blood serum (white Wistar rats; [9]): 18.4 ± 0.49 µg/L
Number of ulcers in the stomach (white Wistar rats; [9]): 1.6 ± 0.9
Adrenaline level in blood serum (white Wistar rats; [10]): 7.9 ± 3.61 µg/L
Eosinophil count in whole blood (white Wistar rats; [10]): 954 ± 3.6
Noradrenaline level in blood serum (white Wistar rats; [10]): 17.8 ± 0.98 µg/L
Number of ulcers in the stomach (white Wistar rats; [10]): 1.5 ± 0.6
Adrenaline level in blood serum (white Wistar rats; [11]): 7.9 ± 0.21 µg/L
Eosinophil count in whole blood (white Wistar rats; [11]): 791 ± 1.2
Noradrenaline level in blood serum (white Wistar rats; [11]): 22.1 ± 1.98 µg/L
Number of ulcers in the stomach (white Wistar rats; [11]): 4.1 ± 0.8
Adrenaline level in blood serum (white Wistar rats; [12]): 7.1 ± 1.19 µg/L
Eosinophil count in whole blood (white Wistar rats; [12]): 866 ± 9.4
Noradrenaline level in blood serum (white Wistar rats; [12]): 20.3 ± 3.49 µg/L
Number of ulcers in the stomach (white Wistar rats; [12]): 2.6 ± 0.4
Adrenaline level in blood serum (white Wistar rats; [13]): 7.3 ± 2.14 µg/L
Eosinophil count in whole blood (white Wistar rats; [13]): 910 ± 4.1
Noradrenaline level in blood serum (white Wistar rats; [13]): 19.3 ± 6.13 µg/L
Number of ulcers in the stomach (white Wistar rats; [13]): 2.4 ± 0.5
Adrenaline level in blood serum (white Wistar rats; [14]): 7.6 ± 0.38 µg/L
Eosinophil count in whole blood (white Wistar rats; [14]): 768 ± 6.7
Noradrenaline level in blood serum (white Wistar rats; [14]): 20.2 ± 5.67 µg/L
Number of ulcers in the stomach (white Wistar rats; [14]): 4.0 ± 0.5
Adrenaline level in blood serum (white Wistar rats; [15]): 8.7 ± 3.82 µg/L
Eosinophil count in whole blood (white Wistar rats; [15]): 885 ± 3.8
Noradrenaline level in blood serum (white Wistar rats; [15]): 20.3 ± 4.83 µg/L
Number of ulcers in the stomach (white Wistar rats; [15]): 2.5 ± 1.1
Adrenaline level in blood serum (white Wistar rats; [16]): 9.6 ± 3.28 µg/L
Eosinophil count in whole blood (white Wistar rats; [16]): 911 ± 8.2
Noradrenaline level in blood serum (white Wistar rats; [16]): 18.4 ± 5.27 µg/L
Number of ulcers in the stomach (white Wistar rats; [16]): 2.1 ± 0.7
all measured characteristics versus the control group (group #1) (white Wistar rats; all the tests, oral aqueous solutions): 2.5-3.5 times
number of defecation acts, control animals versus treated animals (white Wistar rats; control more than treated): 3-4 times
ulcer count versus the control group (group #1) (white Wistar rats; oral aqueous solutions): more than 10 times
decrease in the level of adrenaline and norepinephrine (white Wistar rats; versus control): 3,5-4 times
